Measured values from article PMC5601360 (Journal of Medicinal Chemistry, 2017).
Read-outs that look alike come from different tables or passages of the source.

Columns and labels:
[1] = tested on: acetic acid-induced writhing in CD1 mice; assay: Acetic acid-induced writhing assay in mice after sc administration; assay type: in vivo; conditions: for ED50: Mus musculus, 0.5 h, CD1 mice, inhibition of writhing at 30 min after drug administration, read-out: antinociceptive ED50 (95% CI); for antagonism by nor-BNI of the antinociceptive effect: nor-BNI 20 mg/kg sc 24 h before agonist (2: 5 mg/kg; 3: 1 mg/kg; 4: […] sc)
Procedure: Male CD1 mice (30–35 g, 6–8 weeks old) were obtained from the Center of Biomodels and Experimental Medicine (CBEM) (Innsbruck, Austria) or Charles River (Sulzfeld, Germany). Mice were group-housed in a temperature controlled room with a 12 h light/dark cycle and with free access to food and water. All animal studies were conducted in accordance with ethical guidelines and animal welfare standards according to Austrian regulations for animal research and were approved by the Committee of Animal Care of the Austrian Federal Ministry of Science and Research. Solutions of test compounds were prepared as 1% DMSO solutions in sterile physiological 0.9% saline and further diluted to working doses in saline solution. Test compounds or vehicle (saline) were administered by sc route in a volume of 10 μL/1 g of body weight. All doses are expressed in terms of salts. Separate groups of mice received the respective dose of compound, and individual mice were only used once for behavioral testing. Each experimental group included at least five animals.
Writhing was induced in male CD1 mice by intraperitoneal (ip) injection of a 0.6% acetic acid aqueous solution as described previously.[9a] Groups of mice were administered sc different doses of test compound or saline (control), and then 5 min prior to testing (25 min after drug or saline) each animal received an ip injection of acetic acid solution. Each mouse was placed in individual transparent Plexiglas chambers, and the number of writhes was counted during a 10 min observation period. […] For the antagonism studies, nor-BNI (20 mg/kg) was sc administered 24 h before 2 (5 mg/kg) and 17 (10 mg/kg) was sc administered 15 min before U50,488 (2 mg/kg).

CD1 mice = conditions: mouse, in vivo, sc; for effect on rotarod latencies (motor behavior): 7.5 mg/kg
human KOP receptor [2] = target: T1, human KOP receptor (Homo sapiens, UniProt P41145); conditions: ref 9a, cited from earlier work
T1 construct: expressed in transfected cells; host or cells: CHO-hKOP cells (gift of Dr. Lawrence Toll, SRI International)

human DOP receptor [3] = target: T2, human DOP receptor (Homo sapiens, UniProt P41143); conditions: CHO-hDOP membranes; ref 9a; read-out: receptor binding affinity Ki DOP; cited from earlier work
T2 construct: expressed in transfected cells; host or cells: CHO-hDOP cells (gift of Dr. Lawrence Toll, SRI International)

human KOP receptor [4] = target: T1, human KOP receptor; conditions: percentage stimulation relative to the KOP full agonist U69,593; ref 9a; cited from earlier work
mice = conditions: icv, ref 9d; cited from earlier work
human KOP receptor [5] = target: T1, human KOP receptor; assay: Competition binding assay, CHO-hKOP cell membranes, [3H]U69,593; conditions: for Ki: CHO-hKOP membranes, mean ± SEM, read-out: receptor binding affinity Ki KOP; for selectivity DOP/KOP: Ki ratio DOP/KOP; for selectivity MOP/KOP: Ki ratio MOP/KOP
Procedure: (§1) CHO cells stably expressing recombinant human KOP, MOP, or DOP receptors (CHO-hKOP, CHO-hMOP, and CHO-hDOP cell lines) were kindly provided by Dr. Lawrence Toll (SRI International, Menlo Park, CA). The CHO-hKOP cell line was maintained in Dulbecco’s Minimal Essential Medium (DMEM) supplemented with fetal bovine serum (FBS, 10%), penicillin/streptomycin (0.1%), L-glutamine (2 mM), and geneticin (400 μg/mL). The CHO-hMOP and CHO-hDOP cell lines were maintained in DMEM/Ham’s F-12 medium supplemented with FBS (10%), penicillin/streptomycin (0.1%), L-glutamine (2 mM), and geneticin (400 μg/mL). Cell cultures were maintained at 37 °C in 5% CO2 humidified air.
(§2) Nonspecific binding was determined using 1–10 μM of the unlabeled counterpart of each radioligand. Assays were performed in 50 mM Tris-HCl buffer (pH 7.4) in a final volume of 1 mL. Cell membranes (15–20 μg) were incubated with the appropriate radioligand and various concentrations of test compound for 60 min at 25 °C. After incubation, reactions were terminated by rapid filtration through Whatman glass fiber filters. Filters were washed three times with 5 mL of ice-cold 50 mM Tris-HCl buffer (pH 7.4) using a Brandel M24R cell harvester (Gaithersburg, MD). Radioactivity retained on the filters was counted by liquid scintillation counting using a Beckman Coulter LS6500 (Beckman Coulter Inc., Fullerton, CA). All binding experiments were performed in duplicate and repeated at least three times. The inhibitory constant Ki values (in nM) were calculated from the competition binding curves by nonlinear regression analysis and the Cheng–Prusoff equation.[16]

human MOP receptor = target: T3, human MOP receptor (Homo sapiens, UniProt P35372); assay: Competition binding assay, CHO-hMOP cell membranes, [3H]DAMGO; conditions: mean ± SEM, read-out: receptor binding affinity Ki MOP
T3 construct: expressed in transfected cells; host or cells: CHO-hMOP cells (gift of Dr. Lawrence Toll, SRI International)
Procedure: as §1
as §2, with “. Nonspecific” for “Nonspecific”

human DOP receptor [6] = target: T2, human DOP receptor; assay: Competition binding assay, CHO-hDOP cell membranes, [3H]diprenorphine; conditions: mean ± SEM, read-out: receptor binding affinity Ki DOP
Procedure: as §1
as §2, with “. Nonspecific” for “Nonspecific”

human KOP receptor [7] = target: T1, human KOP receptor; assay: [35S]GTPγS binding assay using CHO-hKOP cell membranes; assay type: biochemical; conditions: for EC50: CHO-hKOP membranes, mean ± SEM; for Emax: read-out: [35S]GTPγS KOP % stim
Procedure: The binding of [^35S]GTPγS to membranes from CHO cells stably expressing human KOP receptors (CHO-hKOP cells) was conducted according to the published procedures.[9a],[9b] CHO-hKOP cell membranes were prepared in buffer A (20 mM HEPES, 10 mM MgCl2, and 100 mM NaCl, pH 7.4). Cell membranes (8–15 μg) in buffer A were incubated with 0.05 nM [^35S]GTPγS, 10 μM GDP, and various concentrations of test compound in a final volume of 1 mL for 60 min at 25 °C. Nonspecific binding was determined using 10 μM GTPγS, and the basal binding was determined in the absence of test ligand. Samples are filtered over glass fiber filters and counted as described for binding assays. […] To determine the KOP antagonist activity, a concentration–response curve for U69,593 was obtained by assessing the [^35S]GTPγS binding to CHO-hKOP cell membranes in the presence or absence of test compound, as previously described.[9b] For each compound, the Schild analysis was conducted, utilizing a full agonist–dose response curve in the presence of at least two concentrations of the antagonist. The equilibrium dissociation constant (Ke) was calculated from the equation Ke = [a]/(DR – 1), where “a” is the concentration of antagonist and DR the virtual shift of the agonist concentration–response curve to the right in the presence of a given concentration of antagonist. All experiments were performed in duplicate and repeated at least three times.

[8] = percentage stimulation relative to the KOP full agonist U69,593

## Oc1cccc(CCN(CCc2ccccc2)CC2CC2)c1 [Compound 2]
[1]; sc
  ED50: 3.23 mg/kg
[1]
  antagonism by nor-BNI of the antinociceptive effect: blocked by nor-BNI
[1]; sc, different doses, 30 min after drug administration
  inhibition of the writhing response: Dose-dependent inhibition of the writhing response
CD1 mice
  effect on rotarod performance (evoked locomotor activity): did not affect the evoked locomotor activity
Human KOP receptor [2]; Ki ratio DOP/KOP
  selectivity DOP/KOP: >1700
Human KOP receptor [2]; Ki ratio MOP/KOP
  selectivity MOP/KOP: 140
Human DOP receptor [3]
  Ki: > 10000 nM
Human KOP receptor [4]
  [35S]GTPγS KOP % stim: 53.4 ± 8.1%
mice
  antinociceptive potency compared to U50,488: equipotent

## Cl.Oc1cccc(CCN(CCc2ccccc2)CC2CCCC2)c1 [Compound 3, 3-[2-[(Cyclopentylmethyl)(phenethyl)amino]ethyl]phenol Hydrochloride]
Human KOP receptor [5]
  Ki: 0.017 ± 0.002 nM
  selectivity DOP/KOP: 133471
  selectivity MOP/KOP: 16118
Human MOP receptor
  Ki: 274 ± 20 nM
Human DOP receptor [6]
  Ki: 2270 ± 625 nM
Human KOP receptor [7]
  EC50: 3.87 ± 1.44 nM
Human KOP receptor [7]; [8]
  Emax: ≥ 80%
[1]; sc
  ED50: 0.49 mg/kg
[1]
  antagonism by nor-BNI of the antinociceptive effect: antagonized by the KOP antagonist nor-BNI
[1]; sc, ED50 comparison
  increase in antinociceptive potency vs U50,488: about 3 fold
  increase in antinociceptive potency vs compound 1: 4 fold
  increase in antinociceptive potency vs compound 2: 7 fold
CD1 mice
  effect on rotarod latencies (motor behavior): no significant alterations in rotarod latencies

## Cl.Oc1cccc(CCN(CCc2ccccc2)CC2CCCCC2)c1 [Compound 4, 3-[2-[(Cyclohexylmethyl)(phenethyl)amino]ethyl]phenol Hydrochloride]
Human KOP receptor [5]
  Ki: 0.061 ± 0.027 nM
  selectivity DOP/KOP: 35066
  selectivity MOP/KOP: 8803
Human MOP receptor
  Ki: 537 ± 172 nM
Human DOP receptor [6]
  Ki: 2140 ± 346 nM
Human KOP receptor [7]
  EC50: 0.23 ± 0.08 nM
Human KOP receptor [7]; EC50 comparison
  increase in agonist potency vs compound 1: 16 fold
Human KOP receptor [7]; [8]
  [35S]GTPγS KOP % stim: 61.9 ± 8.1%
  Emax: 61.9%
[1]; sc
  ED50: 1.01 mg/kg
[1]
  antagonism by nor-BNI of the antinociceptive effect: antagonized by the KOP antagonist nor-BNI
[1]; sc, ED50 comparison
  reduction in antinociceptive potency vs compound 3: about 2 fold
CD1 mice
  effect on rotarod latencies (motor behavior): no significant alterations in rotarod latencies

## Cl.Oc1ccc(CCN(CCc2cccc(O)c2)CC2CC2)cc1 [Compound 17, 3-[2-[(Cyclopropylmethyl)(4-hydroxyphenethyl)amino]ethyl]phenol Hydrochloride]
Human KOP receptor [5]
  Ki: 3.56 ± 0.94 nM
  selectivity DOP/KOP: >2800
  selectivity MOP/KOP: 129
Human MOP receptor
  Ki: 460 ± 127 nM
Human DOP receptor [6]
  Ki: > 10000 nM
Human KOP receptor [7]; antagonist Ke at the KOP receptor against U69,593
  Kd: 24.3 ± 1.5 nM
Human KOP receptor [7]; in vitro, [35S]GTPγS
  functional activity profile at the KOP receptor: KOP antagonism
[1]; 10 mg/kg sc, compared to control mice
  agonist activity in vivo (effect on pain behavior alone): did not affect pain behavior
[1]; 17 10 mg/kg sc 15 min before U50,488 2 mg/kg sc
  antagonism of U50,488-induced antinociception: complete reversal of U50,488-induced analgesia

## Cl.Oc1cccc(CCN(CCc2ccccc2)CC2CCC2)c1F [Compound 18, 3-[2-[(Cyclobutylmethyl)(phenethyl)amino]ethyl]-2-fluorophenol Hydrochloride]
Human KOP receptor [5]
  Ki: 0.072 ± 0.027 nM
  selectivity DOP/KOP: >138000
  selectivity MOP/KOP: 5529
Human MOP receptor
  Ki: 398 ± 57 nM
Human DOP receptor [6]
  Ki: > 10000 nM
Human KOP receptor [7]
  EC50: 6.9 ± 3.35 nM
Human KOP receptor [7]; [8]
  Emax: 71.4%
[1]; sc
  ED50: 2.64 mg/kg
CD1 mice
  effect on rotarod latencies (motor behavior): no significant alterations in rotarod latencies

## Cl.Oc1cccc(CCN(CCc2ccccc2)CC2CCCCC2)c1F [Compound 19, 3-[2-[(Cyclohexylmethyl)(phenethyl)amino]ethyl]-2-fluorophenol Hydrochloride]
Human KOP receptor [5]
  Ki: 0.04 ± 0.006 nM
Human MOP receptor
  Ki: 851 ± 292 nM
Human DOP receptor [6]
  Ki: > 10000 nM
Human KOP receptor [7]
  EC50: 2.77 ± 0.29 nM
Human KOP receptor [7]; [8]
  Emax: ≥ 80%
[1]; sc
  ED50: 1.33 mg/kg
CD1 mice
  effect on rotarod latencies (motor behavior): no significant alterations in rotarod latencies

## Cl.Oc1cccc(CCN(CCc2cccc(O)c2F)CC2CCC2)c1 [Compound 20, 3-[2-[(Cyclobutylmethyl)(3-hydroxyphenethyl)amino]ethyl]-2-fluorophenol Hydrochloride]
Human KOP receptor [5]
  Ki: 0.12 ± 0.01 nM
  selectivity DOP/KOP: >83000
  selectivity MOP/KOP: 4642
Human KOP receptor [5]; Ki comparison
  increase in KOP affinity vs compound 8: about 3 fold
Human MOP receptor
  Ki: 557 ± 198 nM
Human DOP receptor [6]
  Ki: > 10000 nM
Human KOP receptor [7]
  EC50: 1.49 ± 0.04 nM
Human KOP receptor [7]; [8]
  Emax: 57.5 ± 4.4%
[1]; sc
  ED50: 2.25 mg/kg

## Cl.Oc1ccc(CCN(CCc2cccc(O)c2F)CC2CCC2)cc1 [Compound 21, 3-[2-[(Cyclobutylmethyl)(4-hydroxyphenethyl)amino]ethyl]-2-fluorophenol Hydrochloride]
Human KOP receptor [5]
  Ki: 3.37 ± 1.54 nM
  selectivity DOP/KOP: 389
  selectivity MOP/KOP: 155
Human KOP receptor [5]; selectivity ratio comparison
  increase in selectivity KOP vs DOP compared to compound 14: 3 fold
  increase in selectivity KOP vs MOP compared to compound 14: 31 fold
Human MOP receptor
  Ki: 523 ± 33 nM
Human DOP receptor [6]
  Ki: 1310 ± 281 nM
Human KOP receptor [7]
  EC50: 36.7 ± 14 nM
Human KOP receptor [7]; [8]
  Emax: 69.1 ± 1.9%
[1]; sc
  ED50: 2.14 mg/kg
